Measurements: ChEMBL document CHEMBL1130638, “Hepatoprotective, superoxide scavenging, and antioxidative activities of aromatic constituents from the bark of Betula platyphylla var. japonica” (1998)

How the values were obtained:
Type in all cases: functional
Rattus norvegicus [1] = organism: Rattus norvegicus; assay: Compound was tested for antioxidative activity using TBA method at a concentration of 200 ug/mL.
Rattus norvegicus [2] = organism: Rattus norvegicus; assay: Compound was tested for hepatoprotective activity against D-GalN-induced cytotoxicity in primary cultured rat hepatocytes at 100 uM dose; details: Hepatocyte
Rattus norvegicus [3] = organism: Rattus norvegicus; assay: Compound was tested for hepatoprotective activity against D-GalN-induced cytotoxicity in primary cultured rat hepatocytes at 30 uM dose; details: Hepatocyte
Rattus norvegicus [4] = organism: Rattus norvegicus; assay: Compound was tested for hepatoprotective activity against D-GalN-induced cytotoxicity in primary cultured rat hepatocytes at 10 uM dose; details: Hepatocyte
Rattus norvegicus [5] = organism: Rattus norvegicus; assay: Compound was tested for O2- scavenging activity using NBT method at a concentration of 20 ug/mL.
Rattus norvegicus [6] = organism: Rattus norvegicus; assay: Compound was tested for hepatoprotective activity against D-GalN-induced cytotoxicity in primary cultured rat hepatocytes at 3 uM dose; details: Hepatocyte
Rattus norvegicus [7] = organism: Rattus norvegicus; assay: Compound was tested for antioxidative activity using TBA method at a concentration of 200 ug/ml.
Rattus norvegicus [8] = organism: Rattus norvegicus; assay: Compound was tested for O2- scavenging activity using NBT method at a concentration of 20 ug/ml.

SMILES: COc1cc(C(C)(C)C)c(O)c(C(C)(C)C)c1
- Inhibition (Rattus norvegicus [1]): 88%

SMILES: Cc1cc(C(C)(C)C)c(O)c(C(C)(C)C)c1 [BUTYLATED HYDROXYTOLUENE]
- Inhibition (Rattus norvegicus [1]): 97%

SMILES: COc1cc([C@@H]2c3c(cc(OC)c(O)c3OC)C[C@H](CO)[C@H]2CO[C@H]2O[C@@H](CO)[C@@H](O)[C@H](O)[C@@H]2O)cc(OC)c1O
- inhibition at 100 µM (Rattus norvegicus [2]): 28.9%
- inhibition at 30 µM (Rattus norvegicus [3]): 10.5%
- Inhibition (Rattus norvegicus [1]): 87.2%
- inhibition at 10 µM (Rattus norvegicus [4]): 7.6%
- inhibition (Rattus norvegicus [5]): 58.8%
- inhibition at 3 µM (Rattus norvegicus [6]): 8.3%

SMILES: C[C@H](CCc1ccc(O)cc1)O[C@@H]1O[C@H](CO)[C@@H](O)[C@H](O)[C@H]1O
- inhibition at 100 µM (Rattus norvegicus [2]): -0.8%
- inhibition at 30 µM (Rattus norvegicus [3]): 4.9%
- inhibition at 10 µM (Rattus norvegicus [4]): 10.1%
- inhibition at 3 µM (Rattus norvegicus [6]): 4.7%

SMILES: C[C@H](CCc1ccc(O)cc1)O[C@@H]1O[C@H](CO[C@@H]2OC[C@](O)(CO)[C@H]2O)[C@H](O)[C@@H](O)[C@H]1O
- inhibition at 100 µM (Rattus norvegicus [2]): -2.3%
- inhibition at 30 µM (Rattus norvegicus [3]): 2.1%
- Inhibition (Rattus norvegicus [1]): 93.5%
- inhibition at 10 µM (Rattus norvegicus [4]): -1.6%
- inhibition (Rattus norvegicus [5]): 1.8%
- inhibition at 3 µM (Rattus norvegicus [6]): 1.4%

SMILES: OC[C@H]1O[C@@H](O[C@@H](CCc2ccc(O)cc2)C[C@H](O)CCc2ccc(O)cc2)[C@H](O)[C@H](O)[C@H]1O
- inhibition at 100 µM (Rattus norvegicus [2]): 74.7%
- Inhibition (Rattus norvegicus [7]): 56.3%
- inhibition at 30 µM (Rattus norvegicus [3]): 27.3%
- inhibition at 10 µM (Rattus norvegicus [4]): 14.1%
- inhibition at 3 µM (Rattus norvegicus [6]): 16.2%
- inhibition (Rattus norvegicus [8]): 1%

SMILES: OC[C@@]1(O)CO[C@@H](OC[C@H]2O[C@@H](O[C@H](CCCCc3ccc(O)cc3)CCc3ccc(O)cc3)[C@H](O)[C@H](O)[C@H]2O)[C@@H]1O
- inhibition at 100 µM (Rattus norvegicus [2]): 55.3%
- inhibition at 30 µM (Rattus norvegicus [3]): 43.9%
- inhibition at 10 µM (Rattus norvegicus [4]): 38.4%
- inhibition at 3 µM (Rattus norvegicus [6]): 28.3%

SMILES: O=C1c2c(O)cc(O)cc2O[C@H](c2ccc(O)c(O)c2)[C@H]1O [(+)-TAXIFOLIN]
- Inhibition (Rattus norvegicus [1]): 37%
- inhibition (Rattus norvegicus [5]): 93.8%

SMILES: Oc1ccc([C@H]2Oc3cc(OC4OCC(O)C(O)C4O)cc(O)c3C[C@@H]2O)cc1O (stereo partly specified)
- inhibition at 100 µM (Rattus norvegicus [2]): 9.4%
- inhibition at 30 µM (Rattus norvegicus [3]): 8.5%
- Inhibition (Rattus norvegicus [1]): 50.1%
- inhibition at 10 µM (Rattus norvegicus [4]): 8.8%
- inhibition (Rattus norvegicus [5]): 92.9%
- inhibition at 3 µM (Rattus norvegicus [6]): 4.8%

SMILES: COc1cc([C@H]2c3c(cc(OC)c(O)c3OC)C[C@@H](CO)[C@@H]2CO[C@H]2O[C@@H](CO)[C@@H](O)[C@H](O)[C@@H]2O)cc(OC)c1O
- inhibition at 100 µM (Rattus norvegicus [2]): 26.9%
- inhibition at 30 µM (Rattus norvegicus [3]): 24.1%
- Inhibition (Rattus norvegicus [1]): 96.8%
- inhibition at 10 µM (Rattus norvegicus [4]): 24.8%
- inhibition (Rattus norvegicus [5]): 67.3%
- inhibition at 3 µM (Rattus norvegicus [6]): 22.3%

SMILES: C[C@H](CCc1ccc(O)cc1)O[C@@H]1O[C@H](CO[C@@H]2O[C@H](CO)[C@@H](O)[C@@H]2O)[C@H](O)[C@@H](O)[C@H]1O
- inhibition at 100 µM (Rattus norvegicus [2]): 6.8%
- inhibition at 30 µM (Rattus norvegicus [3]): 7.5%
- Inhibition (Rattus norvegicus [1]): 98.2%
- inhibition at 10 µM (Rattus norvegicus [4]): 6.2%
- inhibition (Rattus norvegicus [5]): 5.1%
- inhibition at 3 µM (Rattus norvegicus [6]): 3.4%

SMILES: Cc1c(C)c2c(c(C)c1O)CC[C@@](C)(CCC[C@H](C)CCC[C@H](C)CCCC(C)C)O2 [ALPHA-TOCOPHEROL]
- Inhibition (Rattus norvegicus [1]): 56.7%

SMILES: C[C@@H](CCc1ccc(O)cc1)O[C@@H]1O[C@H](CO[C@@H]2OC[C@](O)(CO)[C@H]2O)[C@H](O)[C@@H](O)[C@H]1O
- inhibition at 100 µM (Rattus norvegicus [2]): -4.5%
- inhibition at 30 µM (Rattus norvegicus [3]): 0.7%
- Inhibition (Rattus norvegicus [1]): 21.8%
- inhibition at 10 µM (Rattus norvegicus [4]): 1.7%
- inhibition (Rattus norvegicus [5]): 10.8%
- inhibition at 3 µM (Rattus norvegicus [6]): 3.6%

SMILES: OC[C@H]1O[C@@H](O[C@@H](CCc2ccc(O)cc2)C[C@@H](O)CCc2ccc(O)cc2)[C@H](O)[C@H](O)[C@H]1O
- inhibition at 100 µM (Rattus norvegicus [2]): 37.4%
- Inhibition (Rattus norvegicus [7]): 61.8%
- inhibition at 30 µM (Rattus norvegicus [3]): 21.7%
- inhibition at 10 µM (Rattus norvegicus [4]): 7.4%
- inhibition at 3 µM (Rattus norvegicus [6]): 9.9%
- inhibition (Rattus norvegicus [8]): 1.8%

SMILES: C[C@@H](CCc1ccc(O)cc1)O[C@@H]1O[C@H](CO[C@@H]2O[C@@H](CO)[C@H](O)[C@H]2O)[C@@H](O)[C@H](O)[C@H]1O
- inhibition at 100 µM (Rattus norvegicus [2]): 5.4%
- inhibition at 30 µM (Rattus norvegicus [3]): 9.6%
- inhibition at 10 µM (Rattus norvegicus [4]): 3.6%
- inhibition (Rattus norvegicus [5]): 4%
- inhibition at 3 µM (Rattus norvegicus [6]): 10.1%
